Laboratory results taken from patent US20240342138A1, “MICROTUBULE TARGETING AGENTS” (BPGbio, Inc., priority 2023, published 2024).
Read-outs that look alike come from different tables or passages of the source.

Test: Biodistribution after oral administration
Format: in vivo, Sprague-Dawley Rats
Conditions: 75 mg/kg oral; for concentration at 8 h / Kp at 8 h / concentration at 0.25 h / Kp at 0.25 h / concentration at 2 h / Kp at 2 h: male, Sprague-Dawley, rat; for concentration at 8 h / concentration at 0.25 h / concentration at 2 h: read-out: Mean plasma/tissue concentration; for Kp at 8 h / Kp at 0.25 h / Kp at 2 h: read-out: Ratio (tissue to plasma)
Experimental: Male Sprague-Dawley Rats (total of 6 animals) 6 to 8 weeks of age (210-227 g) was used in this biodistribution study. Compound 1 was dosed at 75 mg/kg to all animals through oral route of administration at a 10 ml/kg dose volume. Compound 1 formulation was freshly prepared in Tween-80+0.5% methyl cellulose and maintained at room temperature until dosing. Dose was administered in all animals under fasted conditions. […] Heart, lung, liver, kidney, stomach, small intestine, large intestine, skeletal muscle, brain, spleen, pancreas and adipose were harvested while blood was processed to plasma for bioanalytical quantification of Compound 1.
Compound 1 bioanalytical assay was developed and validated using the SCIEX 6500 LC-MS/MS. A mobile phase (isocratic flow) comprised of Acetonitrile and 0.2% formic acid in MilliQ water in a Atlantis dC18-HPLC column (50×4.6 mm, […]), with a flow rate of 0.9 mL/min and a run time of 2.20 min. Mass transition (m/z) of 375.040 and 188.100 was used for detection of Compound 1 at an LLOQ of 2.14 ng/mL.

COc1ccccc1-c1nc(CNC(=O)c2ccccc2OC(F)F)n[nH]1 [Compound 1, 2-(difluoromethoxy)-N-[[5-(2-methoxyphenyl)-1H-1,2,4-triazol-3-yl]methyl]benzamide]
Tissue distribution: Drug distribution was revealed across all tissues | Blood brain barrier penetration (8 hours): brain barrier penetration observed | Percentage (plasma to tissue) (Adipose tissue, 0.25 hours): 1.94% | Percentage (plasma to tissue) (Adipose tissue, 2 hours): 2.36% | Percentage (plasma to tissue) (Adipose tissue, 8 hours): 3.06% | Percentage (plasma to tissue) (Brain, 0.25 hours): 0.79% | Percentage (plasma to tissue) (Brain, 2 hours): 0.57% | Percentage (plasma to tissue) (Brain, 8 hours): 2.18% | Percentage (plasma to tissue) (Heart, 0.25 hours): 1.89% | Percentage (plasma to tissue) (Heart, 2 hours): 2.59% | Percentage (plasma to tissue) (Heart, 8 hours): 4.19% | Percentage (plasma to tissue) (Kidney, 0.25 hours): 2.99% | Percentage (plasma to tissue) (Kidney, 2 hours): 2.92% | Percentage (plasma to tissue) (Kidney, 8 hours): 4.16% | Percentage (plasma to tissue) (Liver, 0.25 hours): 12.5% | Percentage (plasma to tissue) (Liver, 2 hours): 10.6% | Percentage (plasma to tissue) (Liver, 8 hours): 16.5% | Percentage (plasma to tissue) (Lungs, 0.25 hours): 3.91% | Percentage (plasma to tissue) (Lungs, 2 hours): 2.93% | Percentage (plasma to tissue) (Lungs, 8 hours): 5.06% | Percentage (plasma to tissue) (Pancreas, 0.25 hours): 3.42% | Percentage (plasma to tissue) (Pancreas, 2 hours): 3.18% | Percentage (plasma to tissue) (Pancreas, 8 hours): 7.60% | Percentage (plasma to tissue) (Plasma, 0.25 hours): 3.59% | Percentage (plasma to tissue) (Plasma, 2 hours): 2.29% | Percentage (plasma to tissue) (Plasma, 8 hours): 5.37% | Percentage (plasma to tissue) (Skeletal Muscle, 0.25 hours): 0.77% | Percentage (plasma to tissue) (Skeletal Muscle, 2 hours): 0.85% | Percentage (plasma to tissue) (Skeletal Muscle, 8 hours): 20.5% | Percentage (plasma to tissue) (Small intestine, 0.25 hours): 21.9% | Percentage (plasma to tissue) (Small intestine, 2 hours): 21.9% | Percentage (plasma to tissue) (Small intestine, 8 hours): 4.82% | Percentage (plasma to tissue) (Spleen, 0.25 hours): 4.26% | Percentage (plasma to tissue) (Spleen, 2 hours): 1.68% | Percentage (plasma to tissue) (Spleen, 8 hours): 7.84% | Percentage (plasma to tissue) (Stomach, 0.25 hours): 42.7% | Percentage (plasma to tissue) (Stomach, 2 hours): 48.1% | Percentage (plasma to tissue) (Stomach, 8 hours): 18.8% | concentration at 8 h (lung, Lungs, 8 hours): 78.2 ng/g | Kp at 8 h (lung, Lungs, 8 hours): 0.94 | concentration at 0.25 h (Adipose tissue, 0.25 hours): 1530 ng/g | Kp at 0.25 h (Adipose tissue, 0.25 hours): 0.54 | concentration at 2 h (Adipose tissue, 2 hours): 2030 ng/g | Kp at 2 h (Adipose tissue, 2 hours): 1.03 | concentration at 8 h (Adipose tissue, 8 hours): 47.2 ng/g | Kp at 8 h (Adipose tissue, 8 hours): 0.57 | concentration at 0.25 h (Brain, 0.25 hours): 624 ng/g | Kp at 0.25 h (Brain, 0.25 hours): 0.22 | concentration at 2 h (Brain, 2 hours): 494 ng/g | Kp at 2 h (Brain, 2 hours): 0.25 | concentration at 8 h (Brain, 8 hours): 33.6 ng/g | Kp at 8 h (Brain, 8 hours): 0.4 | concentration at 0.25 h (Heart, 0.25 hours): 1490 ng/g | Kp at 0.25 h (Heart, 0.25 hours): 0.53 | concentration at 2 h (Heart, 2 hours): 2230 ng/g | Kp at 2 h (Heart, 2 hours): 1.13 | concentration at 8 h (Heart, 8 hours): 64.8 ng/g | Kp at 8 h (Heart, 8 hours): 0.78 | concentration at 0.25 h (Kidney, 0.25 hours): 2360 ng/g | Kp at 0.25 h (Kidney, 0.25 hours): 0.83 | concentration at 2 h (Kidney, 2 hours): 2520 ng/g | Kp at 2 h (Kidney, 2 hours): 1.27 | concentration at 8 h (Kidney, 8 hours): 64.2 ng/g | Kp at 8 h (Kidney, 8 hours): 0.77 | concentration at 0.25 h (Liver, 0.25 hours): 9890 ng/g | Kp at 0.25 h (Liver, 0.25 hours): 3.49 | concentration at 2 h (Liver, 2 hours): 9140 ng/g | Kp at 2 h (Liver, 2 hours): 4.63 | concentration at 8 h (Liver, 8 hours): 255 ng/g | Kp at 8 h (Liver, 8 hours): 3.06 | concentration at 0.25 h (Lungs, 0.25 hours): 3090 ng/g | Kp at 0.25 h (Lungs, 0.25 hours): 1.09 | concentration at 2 h (Lungs, 2 hours): 2520 ng/g | Kp at 2 h (Lungs, 2 hours): 1.28 | concentration at 0.25 h (Pancreas, 0.25 hours): 2700 ng/g | Kp at 0.25 h (Pancreas, 0.25 hours): 0.95 | concentration at 2 h (Pancreas, 2 hours): 2740 ng/g | Kp at 2 h (Pancreas, 2 hours): 1.39 | concentration at 8 h (Pancreas, 8 hours): 117 ng/g | Kp at 8 h (Pancreas, 8 hours): 1.41 | concentration at 0.25 h (Plasma, 0.25 hours): 2830 ng/mL | concentration at 2 h (Plasma, 2 hours): 1980 ng/mL | concentration at 8 h (Plasma, 8 hours): 83.1 ng/mL | concentration at 0.25 h (Skeletal Muscle, 0.25 hours): 607 ng/g | Kp at 0.25 h (Skeletal Muscle, 0.25 hours): 0.21 | concentration at 2 h (Skeletal Muscle, 2 hours): 734 ng/g | Kp at 2 h (Skeletal Muscle, 2 hours): 0.37 | concentration at 8 h (Skeletal Muscle, 8 hours): 316 ng/g | Kp at 8 h (Skeletal Muscle, 8 hours): 3.81 | concentration at 0.25 h (Small intestine, 0.25 hours): 16700 ng/g | Kp at 0.25 h (Small intestine, 0.25 hours): 5.9 | concentration at 2 h (Small intestine, 2 hours): 18800 ng/g | Kp at 2 h (Small intestine, 2 hours): 9.53 | concentration at 8 h (Small intestine, 8 hours): 74.4 ng/g | Kp at 8 h (Small intestine, 8 hours): 0.9 | concentration at 0.25 h (Spleen, 0.25 hours): 3360 ng/g | Kp at 0.25 h (Spleen, 0.25 hours): 1.19 | concentration at 2 h (Spleen, 2 hours): 1450 ng/g | Kp at 2 h (Spleen, 2 hours): 0.73 | concentration at 8 h (Spleen, 8 hours): 121 ng/g | Kp at 8 h (Spleen, 8 hours): 1.46 | concentration at 0.25 h (Stomach, 0.25 hours): 33700 ng/g | Kp at 0.25 h (Stomach, 0.25 hours): 11.9 | concentration at 2 h (Stomach, 2 hours): 41500 ng/g | Kp at 2 h (Stomach, 2 hours): 21 | concentration at 8 h (Stomach, 8 hours): 290 ng/g | Kp at 8 h (Stomach, 8 hours): 3.5
